{"source": "patent US12453708B2", "about": "“Aminonaphthoquinone compounds for treatment and/or prevention of fibrosis diseases” (CALGENT BIOTECHNOLOGY CO., LTD., priority 2015, dated 2025)", "key": {"[1]": {"system": "ET-1-induced CTGF expression in WI-38 cells", "assay": "ET-1-induced CTGF expression in WI-38 cells (Western blot)", "type": "cell-based, human", "conditions": "WI-38 lung fibroblasts, 0.3, 1, 3 or 10 μM for 30 min before and during 2 h ET-1 (10 nM)", "method": "FIGS. 2 (A) and (B) show the effect of L056 on ET-1-induced CTGF expression in WI-38 cells. WI-38 lung fibroblasts were incubated with different concentrations of L056 (0.3, 1, 3 or 10 μM) for 30 min before and during incubation for 2 h with ET-1 (10 nM). […] (A), Western blot plot; (B), Quantitative assay of Western blot. WI-38 cells, a normal human embryonic lung fibroblast cell line, were obtained from American Type Culture Collection (Manassas, VA). Cells were grown in MEM nutrient mixture, containing 10% FCS, 2 mM L-glutamine, 0.1 mM NEAA, 1 mM sodium pyruvate, 50 U/ml penicillin G, and 100 µg/ml streptomycin, in a humidified 37° C. incubator with 5% CO2 Cells were used between passages 18 and 30 for all experiments. After reaching confluence, cells were seeded onto 6-cm dishes for immunoblotting. Western blot analyses were performed as described previously (Chen B C, Chang Y S, Kang J C, Hsu M J, Sheu J R, Chen T L, et al. Peptidoglycan induces nuclear factor-kappaB activation and cyclooxygenase-2 expression via Ras, Raf-1, and ERK in RAW 264.7 macrophages. J Biol Chem 2004; 279:20889-97). Briefly, WI-38 lung fibroblasts were cultured in 6-cm dishes. […] The immunoreactivity was detected using enhanced chemiluminescence (ECL) following the manufacturer's instructions. Quantitative data were obtained using a computing densitometer with scientific imaging systems (Kodak, Rochester, NY). […]"}, "WI-38 lung fibroblasts": {"system": "WI-38 lung fibroblasts", "assay": "Cell viability test (MTT-assay) in WI-38 cells", "type": "cell-based, human", "conditions": "0.3, 1, 3 or 10 μM for 2 hours", "method": "WI-38 cells, a normal human embryonic lung fibroblast cell line, were obtained from American Type Culture Collection (Manassas, VA). Cells were grown in MEM nutrient mixture, containing 10% FCS, 2 mM L-glutamine, 0.1 mM NEAA, 1 mM sodium pyruvate, 50 U/ml penicillin G, and 100 µg/ml streptomycin, in a humidified 37° C. incubator with 5% CO2 Cells were used between passages 18 and 30 for all experiments. After reaching confluence, cells were seeded onto 6-cm dishes for immunoblotting. WI-38 lung fibroblasts were incubated with different concentrations of MPTOL056 (0.3, 1, 3 or 10 μM) for 2 hours before MTT-assay."}, "[2]": {"system": "CCl4-induced liver fibrosis in mice", "assay": "CCl4-induced liver fibrosis in mice (therapeutic model)", "type": "in vivo, C57BL/6JNarl mice", "conditions": "for fibrosis score, Mean ± SEM: day 43", "method": "(A) sirius red stain; (B), the inhibition of MPTOL056 on CCl4-induced liver fibrosis. […] C57BL/6JNarl mice (8 weeks) were treated with CCl4 (1 μl/μg/BW, q.w.) or PBS (1 μl/μg/BW, q.w.) by i.p. injection for 6 weeks. MPTOL056 (25, 50 and 100 mg/kg/day, q.d.) and silymarin (200 mg/kg/day, q.d.) were administered orally to CCl4-injected mice from 2 weeks to 6 weeks. On day 43, the mice were sacrificed, and the α-SMA analysis of liver tissue was performed by IHC staining (original magnification, x100) (see FIG. 11). […]"}, "[3]": {"conditions": "CCl4 mice, 25 mg (mg/kg/day, q.d., oral, weeks 2 to 6)"}, "[4]": {"conditions": "CCl4 mice, 50 mg (mg/kg/day, q.d., oral, weeks 2 to 6)"}, "[5]": {"conditions": "CCl4 mice, 100 mg (mg/kg/day, q.d., oral, weeks 2 to 6)"}}}
{"smiles": "O=C(Nc1ccncc1)c1ccc(CNC2=C(Cl)C(=O)c3ccccc3C2=O)cc1", "note": "[Example L056, 4-(((3-chloro-1,4-dioxo-1,4-dihydronaphthalen-2-yl)amino)methyl)-N-(pyridin-4-yl)benzamide]", "values": [{"measurement": "ET-1-induced CTGF production/expression", "setting": "[1]", "value": "significantly inhibited"}, {"measurement": "ET-1-induced CTGF production/expression", "setting": "[1]; listed as MPTOL0560", "value": "inhibited"}, {"measurement": "cell viability", "setting": "WI-38 lung fibroblasts", "value": "did not affect cell viability"}, {"measurement": "Efficacy % (reduction of fibrosis score)", "setting": "[2]; [3]", "value": 45.00, "unit": "%"}, {"measurement": "fibrosis score, Mean ± SEM", "setting": "[2]; [3]", "value": "2.40 ± 0.53"}, {"measurement": "Efficacy % (reduction of fibrosis score)", "setting": "[2]; [4]", "value": 46.67, "unit": "%"}, {"measurement": "fibrosis score, Mean ± SEM", "setting": "[2]; [4]", "value": "2.35 ± 0.25"}, {"measurement": "Efficacy % (reduction of fibrosis score)", "setting": "[2]; [5]", "value": 68.33, "unit": "%"}, {"measurement": "fibrosis score, Mean ± SEM", "setting": "[2]; [5]", "value": "1.70 ± 0.18"}, {"measurement": "efficacy in inhibition compared with silymarin", "setting": "[2]; CCl4 mice, silymarin 200 mg/kg/day, FIG. 10(B)", "value": "higher than silymarin"}, {"measurement": "inhibition of CCl4-induced liver fibrosis (in words)", "setting": "[2]; mice, 25, 50 and 100 mg/kg/day oral, FIG. 10(B)", "value": "dose-dependent"}]}
